Broadly, the IC50 is the concentration needed to halve the response being measured.

Data set [1] has as its system CT26 colon cancer allografts. The data set is described as follows: Anticancer activity against CT26 allografts in Balb/c mice. As to conditions: iv, equimolar to 9 mg/kg oxaliplatin, twice a week for 2 weeks. The data set is classed as in vivo. As to the method: Every day, the animals were monitored for body weight and the enhanced stress level, and the tumor size was measured using a caliper according to the formula length × width^2/2.

For data set [2], the system named is tumor-infiltrating T-cell populations. The data set is described as follows: Flow cytometry of T-cell populations in CT26 tumors and tumor-draining lymph nodes. The data set is classed as in vivo, Balb/c mice. As to conditions: 24 h after single iv treatment equimolar to 9 mg/kg oxaliplatin. As to the method:
CT26 cells (5 × 10^5 cells in 50 μL of serum-free RPMI medium) were injected into the right flank of female Balb/c mice (n = 4 per group). On day 7, when the tumors reached a mean tumor volume of ∼170 mm^3, mice were treated once iv with MalEs/IdoCa at a concentration equimolar to 9 mg/kg (dissolved in 20% PG in PBS) or solvent only. After 24 h, the animals were sacrificed, and tumor tissues and the tumor-draining lymph nodes were isolated. Tissues were collected in a tube with 750 μL of ice-cold PBS containing 5% FBS and cut into small pieces. Samples were digested using PBS containing 50 mg/mL collagenase (C2139, Merck, Darmstadt, Germany) and 50 mg/mL DNase I (DN25, Darmstadt, Germany) and filtered several times through a 70 μm cell strainer (734-2761, VWR, Pennsylvania, USA). The samples were centrifuged, and cell pellets were treated with ammonium–chloride–potassium (ACK)-buffer (150 mM NH4Cl, 10 mM KHCO3, 127 μM EDTA, pH 7.2–7.4) to lyse red blood cells and centrifuged in a Würzburg buffer (PBS containing 5% FBS, 5 mM EDTA, 20 μg/mL DNase I).
Cells were washed with PBS and stained using the Aqua Zombie Fixable Viability Kit (423101, BioLegend, California, USA), according to the manufacturer’s instructions. […] The cleaned up data were analyzed using the gating strategy, as shown in Figure S15 for murine tissue and Figure S16 for human co-culture experiment.
For orientation: Flow cytometry measures light scatter and fluorescence of single cells or particles in a stream.

In another data set the test system is IDO. Briefly: LC-HRMS of 1-MDT and Trp metabolites in tumor tissue. In kind it is in vivo, mice. As to conditions: 24 h after treatment. As to the method:
To 50 mg of tumor tissue, 50 μL of fully ^13C internal standard (labeled yeast extract prepared in 2 mL of H2O; ISOtopic solutions e.U., Vienna, Austria) and 950 μL of 80% MeOH (LC–MS grade, Sigma-Aldrich, Vienna, Austria) were added and homogenized in a Dounce-type glass tissue grinder. The homogenate was collected, the tissue homogenizer was washed twice with 400 μL 80% MeOH (LC–MS grade, Sigma-Aldrich, Vienna, Austria), and the washing solution was added to the homogenate. The samples were vortexed, centrifuged (14,000g, 4 °C, 20 min), and kept on dry ice until further processing. 500 μL of tumor sample aliquots was dried for direct LC–HRMS analysis.
All samples were resuspended in 100 μL of water (supernatant sample: same volume; tumor samples 5-fold concentration) and measured using a 12 min method based on reversed-phase chromatography (column: HSS T3, 1.8 μm, 2.1 × 150 mm, Waters) and high-resolution mass spectrometry (Orbitrap HF, Thermo). For quantification, multi-point calibration with external standard mixes (Kyn, Trp, and kynurenic acid) using co-eluting ^13C internal standards was performed and analyzed by Skyline 20.2.0.286. For 1-MDT, relative quantification based on ^13C Trp normalization was performed.

Data set [3] is described as follows: Organ distribution of platinum in SKOV3-bearing SCID mice. As to conditions: 24 h after single iv dose equimolar to 9 mg/kg oxaliplatin; for Platinum ratio tumor:kidney / Platinum ratio tumor:liver: ratio of mean platinum levels.
Procedure: For tissue digestion, approx. 25–50 mg of tissue was weighed into perfluoralkoxy tubes, and 2 mL of HNO3 and 100 μL H2O2 (30%, Suprapur, Merck, Darmstadt, Germany) were added. The solutions were placed on a hot plate and heated up for 7 h using a temperature program with a maximum of 200 °C. The liquids were transferred to 15 mL tubes with the remaining solution being removed by washing twice with 4 mL of ultrapure water.
Platinum concentrations were measured using an Agilent 7800 ICP-QMS instrument (Agilent Technologies, Tokyo, Japan) equipped with an Agilent SPS 4 autosampler (Agilent Technologies, Tokyo, Japan) and a MicroMist nebulizer at a sample uptake rate of approx. 0.2 mL/min. […] All of the measured samples were blank corrected (for the cell culture data, wells containing no cells were used). Elemental standard solutions were purchased from Labkings (Hilversum, The Netherlands). The instrument was tuned on a daily basis.
SKOV3 cells (1.5 × 10^6 cells in 50 μL serum-free medium) were injected subcutaneously into the right flank of male SCID mice. […] Then, the animals were sacrificed by cervical dislocation, and tumors and organs were collected for the measurement with ICP–MS. For plasma isolation, blood was collected in ethylenediaminetetraacetic acid (EDTA)-coated tubes and centrifuged for 10 min at 900g at 4 °C. Plasma was transferred to a new tube and centrifuged once more to remove residual red blood cells.
The nature of data set [4]: UHPLC reduction experiments with L-ascorbic acid. In kind it is physicochemical. As to conditions: 1 mM complex, 10 mM AA, pH 7.4, 20 °C. As to the method:
The platinum(IV)–succinimide complexes were dissolved in 2% DMF in phosphate buffer (500 mM, pH 7.4) to a final concentration of 2 mM. The solutions were then mixed 1:1 with a 20 mM stock of L-ascorbic acid in phosphate buffer (500 mM, pH 7.4) to obtain final concentrations of 1 mM complex, 10 mM L-ascorbic acid, and 1% DMF. The samples were incubated at 20 °C and measured on a Dionex UltiMate 3000 RS UPLC system with a Waters Acquity UPLC BEH C18 column (3 × 50 mm, pore size 1.7 μm) and absorption detection at 220 nm. Data points were taken at t = 0 and every 30 min for 6 h.

Data set [5] in a line: UHPLC reduction kinetics with dithiothreitol. In kind it is physicochemical. The following applies: 1 mM complex, 10 mM DTT, 1% DMF, 500 mM phosphate buffer pH 7.4, 20 °C. As to the method: Figure S 3: Reduction kinetics of reference compounds with AA at 20°C , measured by UHPLC and UV absorption at 220 nm. A: Comparison of OAc/IPAEs with amino -group containing SucCa/IdoEs; B:
Reductive stability of reference compounds with no 1MDT -like ligand. AUC-values were normalized to t = 0. Experimental conditions: 1 mM complex, 10 mM AA in 1% DMF and 500 mM phosphate buffer […]
conditions: 1 mM complex, 10 mM DTT in 1% DMF and 500 mM phosphate buffer (pH 7.4). […]

For data set [6], the system named is human hepatic cell line (WRL68). Briefly: MTT cytotoxicity assay in non-malignant WRL68 cells. The data set is classed as cell-based. As to conditions: 72 h. As to the method:
(§1) The cells were seeded at 3500–6000 cells/well in 96-well plates depending on the proliferation rate of the respective cell line and allowed to recover for 24 h. Subsequently, the cells were treated at indicated concentrations for 48 or 72 h. Cells were additionally incubated with 5-fold equimolar concentrations of ascorbic acid to increase the reduction rate of the compounds. Cell viability was measured by the MTT-based vitality assay (EZ4U; Biomedica, Vienna, Austria), following the manufacturer’s recommendations.

A further data set concerns SKOV3 cancer cells. Briefly: Long-term cytotoxicity assay (crystal violet) in SKOV3 cells. The data set is classed as cell-based, human. The following applies: 168 h, crystal violet stain, mean ± SD. As to the method:
SKOV3 cells were seeded in duplicates at 5000 cells/well in 24-well plates and allowed to recover for 24 h. Subsequently, the cells were treated at the indicated concentrations for 168 h. Cells were fixed with ice-cold methanol (20 min at 4 °C), washed with PBS, and stained with crystal violet. Subsequently, colony formation was inspected, and the fluorescence signal was detected using Typhoon Trio imager (GE Healthcare, Little Chalfont, UK) at 610/30 nm BP and analyzed by ImageJ software.

Data set [7] concerns murine CT26 colon cancer cells. Briefly: MTT cytotoxicity assay in CT26 cells. In kind it is cell-based. As to the method:
(§2) Cells were additionally incubated with 5-fold equimolar concentrations of ascorbic acid to increase the reduction rate of the compounds. Cell viability was measured by the MTT-based vitality assay (EZ4U; Biomedica, Vienna, Austria), following the manufacturer’s recommendations.

The subject of the next data set is HCT116 cells. The data set is described as follows: Cellular platinum levels in HCT116 cells by ICP-MS. The data set is classed as cell-based, human. As to conditions: HCT116, 20 μM, 3 h incubation. As to the method:
HCT116 cells were seeded at 6 × 10^5 cells/well in a six-well plate and allowed to settle for 24 h. Cells were exposed to drugs at 20 μM for 3 h under normal cell culture conditions. Cells were washed twice with PBS and lysed at RT in 500 μL HNO3 (≥69%, Rotipuran Supra, Carl Roth, Karlsruhe, Germany) for 1 h. 400 μL of the lysate was transferred to 7.6 mL of ultrapure water (18.2 MΩ cm, Milli-Q Advantage, Darmstadt, Germany).
The instrument was tuned on a daily basis.

The subject of data set [8] is human embryonic kidney cells (HEK293). Briefly: MTT cytotoxicity assay in non-malignant HEK293 cells. In kind it is cell-based. The following applies: 72 h. As to the method: as §1
For orientation: Formazan colour is commonly taken as a measure of viable cells.

In data set [9] the test system is human HCT116 colon cancer cells. The data set is described as follows: MTT cytotoxicity assay in HCT116 cells. In kind it is cell-based. As to the method:
as §2

The test system of a further data set is human SKOV3 cancer cells. Briefly: MTT cytotoxicity assay in SKOV3 cells. As to conditions: 72 h incubation, with 5 eq. AA; read-out: SKOV3 IC50 values + 5 eq. AA, mean. In kind it is cell-based. As to the method: as §1
For data set [10], the system named is VM7 melanoma cancer cells. Briefly: MTT cytotoxicity assay in VM7 cells. As to conditions: 72 h. The data set is classed as cell-based, human. As to the method:
as §1

The structures appear in SMILES notation. Read-outs that look alike come from different tables or passages of the source.

Turning to `Cn1cc(C[C@@H](NC(=O)[O][Pt]2([O]C(=O)CCCCCN3C(=O)C=CC3=O)[O]C(=O)C(=O)[O]2)C(=O)O)c2ccccc21.N[C@@H]1CCCC[C@H]1N` [MalEs/IdoCa, (OC-6-34)-[(R)-(1-Carboxy-2-(1-methyl-1H-indol-3-yl)ethyl)carbamato][(1R,2R)-1,2-cyclohexanediamino][6-(2,5-dioxo-2,5-dihydro-1H-pyrrol-1-yl)hexanoato]oxalatoplatinum(IV)], the “anticancer activity against CT26 tumors (in words)” value in data set [1] is on record as “activity comparable to MalCa/IdoCa”. In addition, in data set [2], the “immune cell population in tumor-draining lymph nodes” value was “no effect” and the “ratio of CD4+ to CD8+ T cells in the malignant tissue” value was “significant shift”. In addition, the “IDO activity in tumor, Trp to Kyn ratio (in words)” value in the data set on IDO (compared to solvent- or MalCa/IdoEs-treated animals) was “inhibition of IDO activity indicated by an improved Trp to Kyn ratio”. In addition, the “1-MDT levels in tumor, fold higher than upon MalCa/IdoEs treatment” value with IDO (SKOV3 tumor tissue) is on record as roughly 2 fold. Besides, in data set [3], the “plasma platinum concentration, fold higher than oxaliplatin or OAc/OAc” value is on record as roughly 12 fold; the “platinum levels in blood plasma” value is recorded as 5.9 mg/kg; the “Platinum ratio tumor:kidney” value came out at 1.2; the “Platinum ratio tumor:liver” value is given as 0.7.
With `Cn1cc(C[C@@H]([NH3+])C(=O)[O][Pt]2([O]C(=O)NCCCCCN3C(=O)C=CC3=O)[O]C(=O)C(=O)[O]2)c2ccccc21.N[C@@H]1CCCC[C@H]1N.O=C([O-])C(F)(F)F` [MalCa/IdoEs, (OC-6-34)-[(R)-2-Ammonio-3-(1-methyl-1H-indol-3-yl)propanoato][(1R,2R)-1,2-cyclohexanediamino][5-(2,5-dioxo-2,5-dihydro-1H-pyrrol-1-yl)pentylcarbamato]oxalatoplatinum(IV) Trifluoroacetate], the “anticancer activity against CT26 tumors (in words)” value in [1] was “significant anticancer activity”. Further, the “kynurenic acid in tumors (in words)” value with IDO is “enhanced signals”. In addition, in data set [3], the “platinum levels in blood plasma” value worked out at 1.9 mg/kg, the “Platinum ratio tumor:kidney” value is recorded as 0.6 and the “Platinum ratio tumor:liver” value is on record as 0.6.
Consider `CC(=O)[O][Pt]12([O]C(=O)CCc3cn(C)c4ccccc34)([NH]C3CCCCC3[NH]1)[O]C(=O)C(=O)[O]2` [OAc/IPAEs, (OC-6-44)-Acetato[(1R,2R)-1,2-cyclohexanediamino][3-(1-methyl-1H-indol-3-yl)propanoato]oxalatoplatinum(IV)], for which the “reduction kinetics with AA (in words)” value in [4] is reported as “comparable reduction kinetics to the carbamate-linked complexes”. Also, the “reduction in the presence of dithiothreitol (in words)” value in data set [5] is recorded as “stable under these conditions”.
Turning to `O=C1[O][Pt]2([NH][C@@H]3CCCC[C@H]3[NH]2)[O]C1=O` [oxaliplatin, reference compound], the IC50 in data set [6] was 8350 nM; with SKOV3 cancer cells, 6200 ± 1100 nM; in data set [7] (48 h incubation, with 5 equiv AA, read-out: CT26 IC50 values +AA, mean ± SD), 1530 ± 250 nM; in [7] (48 h incubation, without AA, read-out: CT26 IC50 values, mean ± SD), 1500 ± 390 nM; in [7] (72 h incubation, with 5 eq. AA, read-out: CT26 IC50 values + 5 eq. AA, mean), 2110 nM; in data set [7] (72 h incubation, without AA, read-out: CT26 IC50 values, mean) it was 1900 nM. For the same compound, the concentration for half-maximal inhibition (IC50) stood at 2100 nM in data set [8]; 670 ± 10 nM in [9] (48 h incubation, with 5 equiv AA, read-out: HCT116 IC50 values +AA, mean ± SD); 720 ± 10 nM in data set [9] (48 h incubation, without AA, read-out: HCT116 IC50 values, mean ± SD); 740 nM in [9] (72 h incubation, with 5 eq. AA, read-out: HCT116 IC50 values + 5 eq. AA, mean); 760 nM in data set [9] (72 h incubation, without AA, read-out: HCT116 IC50 values, mean); 43400 nM in the data set on human SKOV3 cancer cells. Also, the IC50 in [10] worked out at 3940 nM. Besides, in the data set on HCT116 cells, the “cellular platinum uptake (in words)” value was “taken up by the cells much more efficiently than any of the platinum(IV) prodrugs”.

Values taken from publication PMC8404199, “Structure–Activity Relationships of Triple-Action Platinum(IV) Prodrugs with Albumin-Binding Properties and Immunomodulating Ligands” (Journal of Medicinal Chemistry, 2021).
